# Laboratory results reported in PMC5431176, “Identification of a High-Affinity Pyruvate Receptor in Escherichia coli” (Scientific Reports, 2017).
# Target: T1, BtsS (YehU) (Escherichia coli, UniProt P0AD14)
# T1 construct: full-length BtsS-6His in membrane vesicles
# Assay: DRaCALA with […]-pyruvate on BtsS membrane vesicles, competition with cold pyruvate
# Type: binding
# T1 sequence (P0AD14 whole entry): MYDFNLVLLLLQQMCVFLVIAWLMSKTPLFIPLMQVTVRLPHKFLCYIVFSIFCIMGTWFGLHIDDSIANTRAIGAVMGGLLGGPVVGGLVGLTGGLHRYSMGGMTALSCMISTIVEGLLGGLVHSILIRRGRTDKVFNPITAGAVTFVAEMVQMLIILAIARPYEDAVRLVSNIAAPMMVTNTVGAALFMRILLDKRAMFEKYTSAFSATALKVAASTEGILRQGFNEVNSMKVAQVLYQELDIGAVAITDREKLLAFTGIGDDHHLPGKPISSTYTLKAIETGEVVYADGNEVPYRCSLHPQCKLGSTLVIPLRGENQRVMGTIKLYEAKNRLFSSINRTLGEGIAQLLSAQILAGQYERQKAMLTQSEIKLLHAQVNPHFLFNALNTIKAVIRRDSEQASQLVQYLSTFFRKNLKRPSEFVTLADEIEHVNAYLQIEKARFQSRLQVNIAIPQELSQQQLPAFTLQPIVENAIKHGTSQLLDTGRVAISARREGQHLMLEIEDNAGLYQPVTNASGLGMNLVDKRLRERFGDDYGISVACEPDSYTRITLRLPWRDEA
smiles,measurement,value
CC(=O)C(=O)O [pyruvate],Kd,58.6 ± 8.8 µM
